Source: paper PMC12040169 (PLOS Biology, 2025)

test: in vitro; details: human, hela cells, % viability

Compound	viability at 28.5 h, 10 µM [%]
O=C(NC1CCCC1)c1ccc2c(c1)OCO2 [CBK002177]	81
OC(CNCCc1cccnc1)COc1cccc2c1CCCC2 (stereo not drawn) [CBK002237]	106
OC(CNCc1cccs1)COc1cccc2c1CCCC2 (stereo not drawn) [CBK002239]	96.1
N#CC(CCCN1CCN(c2ccccc2)CC1)(c1ccccc1)c1ccccc1 [CBK002243C]	96.8
COC(=O)c1cc(O)ccc1N [CBK002250]	105
N=C(N)NCc1ccc(Cl)cc1 [CBK002260]	95.7
O=C(CNC(=O)OCc1ccccc1)NCC(CCCN1CCN(c2ccccc2)CC1)(c1ccccc1)c1ccccc1 [CBK002293]	125
CCOC(=O)c1c(-c2ccc(OC)cc2)noc1C(=O)c1ccccc1 [CBK002295]	89.7
COCCNS(=O)(=O)c1ccc(C)cc1 [CBK002332]	82.5
NC(Cc1ccccc1)CN(CC1(c2ccc(Cl)cc2)CC1)C(=O)Nc1ccc2c(c1)OCO2 (stereo not drawn) [CBK002342C]	76.1
COc1ccc2c(ccn2S(=O)(=O)c2ccsc2C(=O)O)c1 [CBK002378]	102
Cc1[nH]cnc1CN1CCc2c(c3ccccc3n2C)C1=O [CBK002383C]	63.5
COc1cc(CNc2nc(O)cc(C(F)(F)F)n2)cc(OC)c1OC [CBK002390]	90.3
COc1ccc(F)c(CN(CC(C)(C)CN)C(=O)Nc2c(F)cccc2F)c1 [CBK002405C]	109
Cc1c(F)cccc1CN(CC(C)(C)CN)C(=O)Nc1ccc(C(F)(F)F)cc1 [CBK002417C]	89.5
Cc1cccc(CN(CC(C)(C)CN)C(=O)NC(C)c2cccc3ccccc23)n1 (stereo not drawn) [CBK002423C]	84.4
COc1ccccc1CN(CC(C)(C)CN)C(=O)NC1C[C@H]1c1ccccc1 (stereo partly drawn) [CBK002424C]	89.6
CC(NC(=O)N(Cc1ccc(-c2ccccc2)cc1)CC(C)(C)CN)c1cccc2ccccc12 (stereo not drawn) [CBK002426C]	50.9
CC(C)(CN)CN(Cc1ccncc1)C(=O)Nc1ccc(C(C)(C)C)cc1 [CBK002459C]	82
COc1ccc(F)c(CN(CC(C)(C)CN)C(=O)Nc2ccc(C(C)(C)C)cc2)c1 [CBK002461C]	94
CC(C)(CN)CN(Cc1c[nH]c(-c2ccccc2)n1)C(=O)Nc1ccc(C(C)(C)C)cc1 [CBK002462C]	87.5
COc1ccc(F)c(CN(CC(C)(C)CN)C(=O)Nc2ccccc2C(C)(C)C)c1 [CBK002478C]	98.1
Cc1c(F)cccc1CN(CC(C)(C)CN)C(=O)Nc1ccc2c(c1)OCO2 [CBK002486C]	87.9

Compound	viability at 28.5 h, 10 µM [%]
CN1CC[C@@]2(c3cc(F)cc(F)c3)CCC(=O)CC12 (stereo partly drawn) [CBK002500]	110
O=[N+]([O-])c1ccc(Oc2ccccc2F)cc1 [CBK002532]	93.9
O=[N+]([O-])c1cc(F)ccc1Oc1cccc2c1CCCC2 [CBK002559]	93.5
Cc1ccccc1COc1cccc2c1CCCC2 [CBK002562]	98.2
COc1cc(C#N)ccc1Oc1nnnn1-c1ccccc1 [CBK002571]	93.1
N#Cc1c(Oc2cccc(Cl)c2Cl)cccc1C(F)(F)F [CBK002592]	91.1
O=[N+]([O-])c1cccnc1Oc1cccc(Cl)c1Cl [CBK002596]	98
Cc1ccccc1COc1cccc(Cl)c1Cl [CBK002607]	90.6
Cn1cnc([N+](=O)[O-])c1Sc1cccs1 [CBK002620]	90.6
O=[N+]([O-])c1ccc(Sc2cccs2)c(C(F)(F)F)c1 [CBK002621]	105
COc1ccc([N+](=O)[O-])c(Sc2cccs2)n1 [CBK002625]	84.9
Clc1ccc(COc2cccc3c2CCCC3)cn1 [CBK002634]	102
Clc1ccc(CSc2cccs2)cn1 [CBK002639]	95.5
CCOC(=O)c1ccc(-c2ccc(OC)cc2)cc1 [CBK002658]	95.2
COc1ccc([C@@]23CC/C(=N/NS(=O)(=O)c4ccc(C)cc4)C[C@@H]2N(Cc2ccccc2)CC3)cc1OC [CBK002717]	95.5
O=[N+]([O-])c1ccc(Oc2ccccc2)nc1 [CBK002726]	85.8
N#Cc1c(Oc2cccc3cccnc23)cccc1C(F)(F)F [CBK002728]	105
N#Cc1ccc(COc2ccccc2)cc1 [CBK002738]	96.4
O=[N+]([O-])c1ccc(Oc2cccc3cccnc23)c(C(F)(F)F)c1 [CBK002739]	80.6
Cn1cnc([N+](=O)[O-])c1Oc1ccccc1OCc1ccccc1 [CBK002747]	91.7
COc1ccc([N+](=O)[O-])c(Oc2ccccc2OCc2ccccc2)n1 [CBK002753]	88
Clc1ccc(COc2ccccc2OCc2ccccc2)s1 [CBK002766]	87.7
FC(F)(F)Sc1ccc(COc2cccc3cccnc23)cc1 [CBK002776]	94.5

Compound	viability at 28.5 h, 10 µM [%]
Cn1cnc([N+](=O)[O-])c1Oc1cccc(C(F)(F)F)c1 [CBK002790]	87
COc1ccc([N+](=O)[O-])c(Oc2cccc(C(F)(F)F)c2)n1 [CBK002796]	94.5
O=[N+]([O-])c1cc(F)ccc1Oc1cccc(C(F)(F)F)c1 [CBK002802]	91.9
N#Cc1ccc(COc2cccc(C(F)(F)F)c2)cc1 [CBK002811]	103
Cc1ccc(Oc2ccc(C(F)(F)F)cc2[N+](=O)[O-])c(Br)c1 [CBK002817]	93.1
Cc1ccc(Oc2c([N+](=O)[O-])ncn2C)c(Br)c1 [CBK002819]	99.2
Cc1ccc(Oc2ncccc2[N+](=O)[O-])c(Br)c1 [CBK002822]	94.8
Cc1ccc(Oc2cc(C)c([N+](=O)[O-])cn2)c(Br)c1 [CBK002823]	92.2
Cc1ccc(Oc2ccc([N+](=O)[O-])cc2)c(Br)c1 [CBK002832]	90.6
Cc1ccc(OCc2ccccc2)c(Br)c1 [CBK002833]	105
Cc1ccc(OCc2ccc(Cl)s2)c(Br)c1 [CBK002840]	79
Cc1ccc(OCc2ccc(Cl)nc2)c(Br)c1 [CBK002842]	75.8
CCN(CC)C(=O)[C@@H]1CCCN1c1nc(O)cc(C(F)(F)F)n1 [CBK002867]	92
Cc1cc(=O)oc2cc(SCc3ccc(SC(F)(F)F)cc3)ccc12 [CBK002897]	97.6
Cc1cc(=O)oc2cc(SCc3ccc(Cl)s3)ccc12 [CBK002898]	89.5
O=[N+]([O-])c1ccc(Sc2cccc(F)c2)nc1 [CBK002905]	103
Fc1cccc(Sc2nnnn2-c2ccccc2)c1 [CBK002906]	108
N#Cc1ccc(Sc2cccc(F)c2)c(F)c1 [CBK002909]	115
Cc1ccccc1CSc1cccc(F)c1 [CBK002913]	109
Cc1cc(=O)oc2cc(Sc3cccc(C(F)(F)F)c3C#N)ccc12 [CBK002914]	93.3
Cc1cc(CSc2cccc(F)c2)no1 [CBK002916]	97
N#Cc1ccc(CSc2cccc(F)c2)cc1 [CBK002918]	109
N#Cc1ccccc1-c1ccc(CSc2cccc(F)c2)cc1 [CBK002920]	107

Compound	viability at 28.5 h, 10 µM [%]
CN1CCN(c2nc(NS(=O)(=O)c3ccc(C#N)cc3)cc3ccccc23)CC1 [CBK002977C]	94.8
CC(C)(C)OC(=O)N1CCN(c2ccc(C(F)(F)F)c(Cl)n2)CC1 [CBK003030]	88.9
COc1ccc(OC)c(CCO)c1 [CBK003033]	94.4
CC(C)(C)OC(=O)N1CCC(Oc2ccccc2C#N)C1 (stereo not drawn) [CBK003039]	84.9
Cc1cccc(C)c1OCC(O)CNCCc1ccccc1 (stereo not drawn) [CBK003072]	107
O=S(=O)(Nc1ccc(N2CCNCC2)c2ccccc12)c1cc(Cl)sc1Cl [CBK003116C]	93.9
O=S(=O)(Nc1ccc(N2CCNCC2)c2ccccc12)c1ccc(Cl)s1 [CBK003146C]	104
CC(C)(C)OC(=O)N1CCN(c2ccc(N)c3ccccc23)CC1 [CBK003162]	88.3
c1ccc(CNc2cccc(N3CCNCC3)n2)cc1 [CBK003176T]	92
CC(C)(C)OC(=O)NC(C)(C)C(=O)N1CC(C(=O)O)C(c2cc3ccccc3o2)C1 (stereo not drawn) [CBK003236]	88
CC(C)(CN(Cc1ccccc1)C(=O)/C=C/c1ccccc1)NC(=O)OC(C)(C)C [CBK003266]	91.2
CCNc1nc(Sc2ccc(Cl)cc2)cc(C(F)(F)F)n1 [CBK003349]	79.4
O=C(CCC(=O)c1ccccc1)NC1CCc2ccccc21 (stereo not drawn) [CBK003351]	103
Cc1ccc(S(=O)(=O)N2CCC(OC(N)=O)CC2)cc1 [CBK003369]	106
CC(C)(C)OC(=O)CN1C(=O)N[C@@H]2CCCC[C@@H]21 [CBK003423]	84.8
CCC(CC)Cn1c(-c2cccnc2)nc2cc(S(=O)(=O)NCCO)ccc21 [CBK003450]	91
O=C(O)c1cccc2c3c([nH]c12)CCCCC3 [CBK003451]	85
CSc1nc(N)cc(N2CCN(C(=O)OC(C)(C)C)CC2)n1 [CBK003458]	111
CC(C)(C)OC(=O)N1CCN(c2ccc(N)cn2)CC1 [CBK003463]	95.5
CC(=O)Nc1ccc2c(c1)CCC(C)C2=O (stereo not drawn) [CBK003474]	78.4
Cc1c(Cl)cccc1S(=O)(=O)Nc1nc(CCN2CCOCC2=O)cs1 [CBK003498K]	87.7

same assay, conditions: human, hela cells, % viability, bulk resorufin, single well

Compound	viability at 28.5 h, 10 µM [%]
O=C1CCCc2c1c1cccc(C(=O)O)c1n2Cc1ccccc1 [CBK002365]	95.6
CN(C)[C@H]1CCC[C@@H]1C(=O)Nc1ccc(Cl)c(Cl)c1 [CBK003406]	86.9
CCC(=O)N(C[C@H]1CCC[C@@H]1N(C)C)c1ccc(Cl)c(Cl)c1 [CBK003408]	96.5
